Data from paper PMC8386742, “Discovery of N-aryl sulphonamide-quinazoline derivatives as anti-gastric cancer agents in vitro and in vivo via activating the Hippo signalling pathway” (Journal of Enzyme Inhibition and Medicinal Chemistry, 2021).

Key:
[1] = system: HCT-116 cells; experiment: MTT antiproliferative assay, HCT-116 cells; type: cell-based, human; settings: exposure for 48 h
Protocol: (§1) The in vitro antiproliferative activities of new target compounds 6a–6g, 9a–9i, 10a–10j, 11a–11j, and 14a–14d were evaluated against four human cancer cell lines (MGC-803, PC-3, HCT-116, and MCF-7) using MTT assay and 5-FU as a positive drug. The following Tables 1–[4] depicted the results of in vitro antiproliferative activity.
(§2) Cell lines used were cultured in humidified incubator in a humidified atmosphere of 5% CO2 and 95% air. The RPMI-1640 medium was supplemented with 10% foetal bovine serum, penicillin (100 U/ml) and streptomycin (0.1 mg/ml).
(§3) Cell lines were seeded into 96-well plates and incubated for 24 h. Then cells were treated with different concentrations of compounds. And after another 48 h, MTT reagent (20 μL per well) was added to each well and then incubated at 37 °C for 4 h. After the suspension was discarded, formazan was then dissolved with DMSO. Absorbencies of formazan solution were measured at 490 nm. The IC50 values of tested compounds were calculated by SPSS version 17.0.

[2] = system: MCF-7 cells; experiment: MTT antiproliferative assay, MCF-7 cells; type: cell-based, human; settings: exposure for 48 h
Protocol: as §1, §2, §3

[3] = system: MGC-803 cells; experiment: Annexin V-FITC/PI cell apoptosis assay, MGC-803 cells; type: cell-based, human; settings: MGC-803, high dose, 48 h
Protocol: Bcl-2 regulated by the Hippo/YAP plays an important role in cell apoptosis. Therefore, we next examined the effects of compound 9i on cell apoptosis. MGC-803 and SGC-7901 cells were treated with compound 9i for 48 h, as shown in Figures 5(A,B), the nuclei of gastric cancer are dense and fragmented, and cells became round, small, and was induced to die. To determine the influence of compound 9i on cell death, MGC-803 and SGC-7901 cells treated with compound 9i were stained with Annexin V-FITC/PI. As shown in Figure 5(C), the high dose compound 9i treatment group induced over 60% of cell apoptosis at 48 h. As shown in Figure 5(D), some other apoptosis-related proteins were also regulated by compound 9i in MGC-803 and SGC-7901 cells. Compound 9i caused dose-dependent decreases of anti-apoptosis proteins c-IAP and Mcl-1. […] Mitochondrial membrane potential depolarisation and translocation from the mitochondria to the cytoplasm of cytochrome c are two key steps involved in the intrinsic apoptosis pathway. As shown in Figures 5(F–H), compound 9i depolarised mitochondrial membrane potential and induced the translocation of cytochrome c.
Figure 5. Compound 9i induced apoptosis in MGC-803 and SGC-7901 cells. Density ratios relative to β-Actin were shown on the top of each Western blotting band. […] The cell line of each row appears only in tiny plot titles that cannot be read with certainty. […]

[4] = system: Hippo signalling pathway; experiment: Western blotting / mRNA of Hippo related proteins in MGC-803 and SGC-7901 cells; type: cell-based
Source text: Phosphorylation of YAP is the process of YAP inactivation. YAP protein is inactivated (phosphorylated) by Hippo cascade pathway in cells. […] We also investigated the influence of 9i on upstream signal-regulated molecules of the Hippo pathway. […] Transcription factor TEAD interacts with YAP to express downstream substrates, the level of TEAD was not changed by compound 9i (Figures 4(A,B)). Yap entering the nucleus is a key step of substrates expression. With the treatment of compound 9i, the level of YAP inside nuclear was decreased (Figure 4(C)).
Figure 4. Influence of 9i on the Hippo signalling pathway in two gastric cancer cells. Density ratios relative to its loading control protein (β-Actin/LaminB1/GAPDH) were shown on the top of each Western blotting band. (A) The levels of Hippo related proteins, cells were treated with indicated concentrations of 9i for 12 h; (B) The levels of Hippo related proteins in different hours after the treatment with 450 nM of 9i; (C) Level of YAP in the cytoplasm and nuclear, cells were treated for 12 h with 450 nM of 9i; (D) Levels of Bcl-2 and c-Myc in MGC-803 cells after the treatment with 450 nM of 9i for different hours; (E) mRNA levels of Bcl-2 and c-My in MGC-803 cells after the treatment with 450 nM of 9i 12 h. Data were presented as mean ± SD.
2 gastric cancer cells were seeded in dishes and treated with 9i or DMSO. After 48 h, MGC-803 and SGC-7901 cells were collected and then lysed. The denatured lysates of each groups were electrophoretic separated in SDS-PAGE. Proteins were then transferred onto PVDF membranes from gels. After blocking for 2 h, membranes were incubated with primary antibodies conjugation. Then, the membranes were washed and incubated with 2nd antibodies. At last, specific proteins were detected.

COc1ccc(S(=O)(=O)N(Cc2nc(C)c3ccccc3n2)c2cc(OC)c(OC)c(OC)c2)cc1 [Compound 9i, 4-Methoxy-N-((4-methylquinazolin-2-yl)methyl)-N-(3,4,5-trimethoxyphenyl) benzene-sulfonamide]
IC50 ([1]; Homo sapiens, HCT-116, 48 h): 708 nM | IC50 [1]: 700 ± 40 nM | IC50 ([2]; Homo sapiens, MCF7, 48 h): 816 nM | IC50 [2]: 810 ± 60 nM | cell apoptosis [3]: over 60% | MST1 and SAV levels ([4]; MGC-803 and SGC-7901 cells): did not show an obvious change | level of TEAD ([4]; MGC-803 and SGC-7901 cells): not changed | level of YAP ([4]; MGC-803 and SGC-7901 cells): reduced level of YAP | p-LATS level ([4]; MGC-803 and SGC-7901 cells): up-regulated | phosphorylation of YAP ([4]; MGC-803 and SGC-7901 cells, dose and time-dependent): up-regulated the phosphorylation of YAP | Bcl-2 and c-Myc expression ([4]; two gastric cancer cells, mRNA and protein): down-regulated at mRNA and protein levels
